This is an account of results in article PMC8881077 (Journal of Enzyme Inhibition and Medicinal Chemistry, 2022).

The subject of series [1] is normal human hepatocytes cell line (LO2). In words: Hepatoprotective activity on H2O2-induced LO2 cell injury. It counts as cell-based. Particulars: LO2 cells, 1000 μM H2O2. On the procedure:
(§1) The anti-AD drug tacrine has been forced to withdraw due to severe hepatotoxicity. Thus, the hepatotoxicity of compounds 5f on normal human hepatocytes cell line (LO2) was evaluated using MTT assay. […] Furthermore, the hepatoprotective activity of compound 5f on H2O2-induced live injury was tested using an MTT assay. […]
• Materials. LO2 cells purchased from Wuhan Punosi Life Technology Co., Ltd. 30% H2O2, Trichloroacetic acid (TCA), SRB, DMEM medium (HyClone), Foetal bovine serum (LNSER, article number: S711-001S), Penicillin streptomycin mixture (double antibiotic) (Solarbio), 0.25% trypsin-EDTA digestive juice (Solarbio), DMSO (Solarbio), Potassium dihydrogen phosphate (Xiyu Science Co., Ltd., CAS: 7778-77-0); Ultra-clean workbench (Wuxi Easy Purification Equipment Co., Ltd., model: SW-CJ-VS2); Carbon dioxide incubator (Esco, model: 2014-88759); […]; • Experiment method. (a) Cell culture: cultured in DMEM medium containing 10% FBS and 1% double-antibody, placed in 37 °C, 5% CO2 constant temperature and humidity incubator, changed every 2 days, subcultured when cells were 90% confluent. (b) Effect of compounds on LO2 proliferation by SRB assay: Discard the culture medium, fix the cells with 10% (m/v) trichloroacetic acid (TCA) 100 μL, and place in a refrigerator at 4 °C for 1 h. The fixing solution was discarded, washed 5 times with distilled water, and dried in an oven. Adding 100 μL SRB solution to each well after drying, and leave it at room temperature for 10-30 min. Discard the supernatant, wash it 5 times with 1% glacial acetic acid water, air dry. Finally, add 100 μL/well of 10 mmol/L Tris-based buffer solution and oscillate on a plate shaker. The OD value was measured at 515 nm using a microplate reader. Cell viability (%) = OD test well/OD blank control well x 100%. (c) Effect of compounds on H2O2-induced LO2 cell injury by SRB assay. […] After treatment with H2O2 for 6h, the survival rate was measured by the SRB method.

Series [2] relates to scopolamine-induced mice memory impairment. In words: Step-down passive avoidance task. Particulars: scopolamine 3 mg/kg.
Description: Sixty mice were randomly divided into six groups. […] After 30 min, memory impairment was induced by administering scopolamine (3 mg/kg).
Another series deals with SPF Kunming mice. Nature of the series: Acute toxicity. It counts as in vivo. How it is done:
Kunming mice at a body weight of 18–22 g (six weeks old, either gender) were supplied by the Centre of Experimental Animals of Sichuan Academy of Chinese Medicine Sciences (eligibility certification no. SCXK-Chuan2018-19). Mice were maintained under standard conditions with a 12 h:12 h light-dark cycle at 20−22 °C with a relative humidity of 60 − 70%. Sterile food and water were provided according to institutional guidelines. Prior to each experiment, mice were fasted overnight and allowed free access to water. […] After the administration of the compound 5f, the mice were observed continuously for the first 4 h for any abnormal behaviour and mortality changes, intermittently for the next 24 h, and occasionally thereafter for 14 days for the onset of any delayed effects. All animals were sacrificed on the 14th day after drug administration and were macroscopically examined for possible damage to the heart, liver, and kidneys.

For series [3], the system named is normal human hepatocytes cell line (LO2). Nature of the series: Hepatotoxicity on LO2 cells. The format is cell-based. Particulars: 2.5 μM to 80.0 μM. On the procedure: as §1
• Materials. LO2 cells purchased from Wuhan Punosi Life Technology Co., Ltd. 30% H2O2, Trichloroacetic acid (TCA), SRB, DMEM medium (HyClone), Foetal bovine serum (LNSER, article number: S711-001S), Penicillin streptomycin mixture (double antibiotic) (Solarbio), 0.25% trypsin-EDTA digestive juice (Solarbio), DMSO (Solarbio), Potassium dihydrogen phosphate (Xiyu Science Co., Ltd., CAS: 7778-77-0); Ultra-clean workbench (Wuxi Easy Purification Equipment Co., Ltd., model: SW-CJ-VS2); Carbon dioxide incubator (Esco, model: 2014-88759); […]; • Experiment method. (a) Cell culture: cultured in DMEM medium containing 10% FBS and 1% double-antibody, placed in 37 °C, 5% CO2 constant temperature and humidity incubator, changed every 2 days, subcultured when cells were 90% confluent. […] The OD value was measured at 515 nm using a microplate reader. […] After treatment with H2O2 for 6h, the survival rate was measured by the SRB method.

Another series in a line: in vitro. Particulars: PAMPA.

On to `CCN(CCCCCOc1cc(O)c2c(c1)OC(c1ccc(O)cc1)CC2=O)Cc1ccccc1` (centres unmarked) [Compound 5f, 7-((5-(benzyl(ethyl)amino)pentyl)oxy)-5-hydroxy-2–(4-hydroxyphenyl)chroman-4-one], for which the viability at 5 µM in series [1] (L02, 5.0 μM) was 65.2%. This compound showed a viability at 10 µM in series [1] (L02, 10.0 μM) of 69.7%. The compound also came in with a viability at 20 µM in series [1] (L02, 20.0 μM) of 79.4%. Also, the step-down latency turned out to be 153.7 s in series [2] (1.9 mg/kg), 183.4 s in series [2] (5.7 mg/kg) and 207.8 s in series [2] (17.1 mg/kg). Also, the “acute toxicity, recovery” value in the series with SPF Kunming mice (after 24h) was “returned to normal”. For the same compound, the “acute toxicity, heart, liver, spleen, lung and kidney” value with SPF Kunming mice (after 7 days) is on record as “no abnormalities were observed”. Besides, the “acute toxicity, observed signs” value with SPF Kunming mice (dose of 500 mg/kg, intragastric) is “decreased spontaneous activity and movement, drowsiness, dyspnoea and reduced breathing rate”. For the same compound, the “LO2 cell viability (hepatotoxicity)” value in series [3] is reported as “did not show an obvious change until the concentration increased to 40.0 μM”. The Papp at 100 μg/mL in the series “in vitro” came out at 6.9 ± 0.36 ×10⁻⁶ cm/s.
